Results reported in patent US8414885B2, “Methods and compositions for treating cancer” (priority 2009, dated 2013).
Peptide text beside a SMILES is read from it. * marks the point of attachment. Cbz = O=C(OCc1ccccc1)*; CH2F = FC*

Columns and labels:
Assay type in all cases: cell-based, human
caspase-3 = experiment: Immunoblotting for caspase-3 activation in infected melanoma cells; details: delta-PK infected cultures, PD150606 100 μM, 24 hrs p.i.
From the text: FIG. 6. Calpain and caspase-7 and caspace-3 are activated in delta-PK infected melanoma cells. […] Data were quantified by densitometry and expressed as the ratio of the p76/p80 and p28 densitometric units +/−SD, respectively. Representatives of three replicate experiments are shown (***p<0.001 vs. Mock). B. The immunoblots in FIG. 6A were sequentially stripped and re-probed with antibodies to activated caspase-7, activated caspase-3, and actin. Data were quantified by densitometry and results are expressed as densitometric units +/−SD (**p<0.01, ***p<0.001 vs. Mock). C. […]
Cultured cells were lysed with radioimmunoprecipitation buffer [RIPA; 20 mM Tris-HCl (pH 7.4), […], 1% Nonidet P-40, 0.1% sodium dodecyl sulfate (SDS), 0.5% sodium deoxycholate] supplemented with protease and phosphatase inhibitor cocktails (Sigma-Aldrich), and sonicated twice for 30 seconds at 25% output power with a sonicator ultrasonic processor (Misonix, Inc., Farmingdale, N.Y.). […] Protein concentration was determined by the bicinchoninic assay (Pierce, Rockford, Ill.), and 100 μg protein samples were resolved by SDS-polyacrylamide gel elecrophoresis (SDS-PAGE) and transferred to polyvinylidene fluoride membranes followed by immunoblotting. […] Quantitation was by densitometric scanning with the Bio-Rad GS-700 imaging densitometer (Bio-Rad, Hercules, Calif.). […]

A375 cells = experiment: EtHD cell death with or without protease inhibitors, A375; details: A375, delta-PK moi=0.5, 72 hrs p.i.; PD150606 100 μM or z-VAD-fmk 20 μM
Protocol: (§1) FIG. 7. Delta-PK induced melanoma cell death is both calpain and caspase-dependent. A. A2058 cells were infected with delta-PK (moi=0.5) or mock-infected with PBS and cultured without or with PD150606 (100 μM), z-VAD-fmk (20 µM) or both PD150606 and z-VAD-fmk. DMSO (28 mM) was used as vehicle control. Replicate cultures (n=3) were stained with EtHD at various times p.i. and the % staining cells calculated. B. A375 cells were infected with delta-PK (moi=0.5) in the absence or presence of inhibitors and stained with EtHD+. Delta-PK infected WI-38 cells and mock infected DMSO treated cells served as controls.
(§2) Cell death was determined by trypan blue exclusion and staining with ethidium homodimer-1 (EtHD), a cell impermeable red fluorescent nuclear stain that increases intensity after binding to the DNA of dead cells. […] Dead cells were counted by four independent hemacytometer counts. […] Stained cells were counted in five randomly selected 3 mm^2 fields (≧250 cells each), and the % positive cells was calculated relative to total number of cells imaged by phase contrast microscopy (Gober M D, Laing J M, Thompson S M, Aurelian L. The growth compromised HSV-2 mutant DeltaRR prevents kainic acid-induced apoptosis and loss of function in organotypic hippocampal cultures. Brain Res 2006; 1119: 26-39). […]

A2058 cells = experiment: EtHD cell death with or without protease inhibitors, A2058; details: A2058, delta-PK moi=0.5, 72 hrs p.i.; PD150606 100 μM or z-VAD-fmk 20 μM
Protocol: as §1, §2

SMILES | effect of inhibitor on levels of caspase-3p17 cleavage product (caspase-3) | % EtHD+ cells in delta-PK infected cultures in presence of inhibitor (A375 cells) | % EtHD+ cells in delta-PK infected cultures in presence of inhibitor (A2058 cells)
O=C(O)/C(S)=C/c1ccc(I)cc1 [PD150606] | increased | 49.1+/−2.5% | 30.7+/−2.8%
COC(=O)C[C@H](NC(=O)[C@H](C)NC(=O)[C@@H](NC(=O)OCc1ccccc1)C(C)C)C(=O)CF [z-VAD-fmk, benzyloxcarbonyl-Val-Ala-Asp-fluormethyl ketone] (Cbz-Val-Ala-Asp(OMe)-CH2F) |  | 49.6+/−3.7% | 35.8+/−2.5%
